# Measurements as given in PMC8469417, “Is It Possible to Create Antimicrobial Peptides Based on the Amyloidogenic Sequence of Ribosomal S1 Protein of P. aeruginosa?” (International Journal of Molecular Sciences, 2021).
# “Also recorded” adds a separate entry of the source. Counter-ions that a name gives are not always drawn. Ends that are not written are not given here.
# Assays:
# [1] = system: human diploid fibroblasts; assay: Cytotoxicity assay, human fibroblasts; type: cell-based; conditions: up to 8 µM, 24 h; resazurin assay, calcein-AM / propidium iodide staining, triplicate
# Experimental: (§1) Cell viability was estimated as described previously by resazurin cell viability assay. Each assay was done in triplicate. All measurements were carried out on the control samples that were not treated with cytotoxic substances. We used human diploid fibroblasts and human breast duct carcinoma BT474 cells obtained from the American Type Cell Culture Collection (Manassas, Virginia, VA, USA). BT474 cells were cultured in DMEM medium (Sigma-Aldrich, St. Louis, MO, USA) supplemented with 10% fetal bovine serum (Gibco, Waltham, MA, USA), 40 μg/mL gentamicin sulfate (Sigma-Aldrich, St. Louis, MO, USA), at 37° C, under conditions of 5% content CO2 in the air. The analysis of living and dead cells was carried out using BD Accuri C6 flow cytometer (BD Bioscience, San Jose, CA, USA).
# [2] = system: human breast duct carcinoma BT474 cells; assay: Cytotoxicity assay, BT474 cells; type: cell-based; conditions: up to 8 µM, 24 h; resazurin assay, calcein-AM / propidium iodide staining, triplicate
# Experimental: as §1
# [3] = system: P. aeruginosa strain ATCC 28753; type: cell-based, Pseudomonas aeruginosa; conditions: 10 µL drops on LB 0.75% agar, 2% DMSO, 12 h, 37 °C
# Experimental: (§2) The R23R, R23L, R23R*, R23L* peptides and an antibiotic (gentamicin sulfate) were dissolved in 100% DMSO and solutions were prepared to test their activity.
# (§3) The P. aeruginosa strain ATCC 28753 was inoculated with a wire loop in 5 mL of LB medium and was incubated at 37 °C. After 12 h, plastic Petri dishes were poured with LB medium (about 5 mL) with 0.75% agar. Before pouring, 50 μL of an overnight culture of the test bacteria was added to each dish. The R23R, R23L, R23R*, and R23L* peptides were finally dissolved in 2% (volume/volume) DMSO and was tested with different concentrations with gentamicin sulfate as control of antimicrobial effect. The medium was dried and 10 μL of the prepared peptides were applied to it in accordance with the labeling. Then the dishes were placed in a thermostat and incubated for 12 h at a temperature of 37 °C. Antimicrobial activity was recorded by the presence of transparent zones of no growth around drops with peptide.
# [4] = system: P. aeruginosa strain PA103; assay: Broth microdilution, strain PA103; type: cell-based, Pseudomonas aeruginosa; conditions: LB medium, 2% DMSO, 24 h, 37 °C, 600 nm
# Experimental: The R23R, R23L, R23R*, R23L* peptides and an antibiotic (gentamicin sulfate) were dissolved in 100% DMSO and solutions were prepared with a final DMSO concentration of 2% (volume/volume) to test their activity.
# Stationary culture of P. aeruginosa strain PA103 was diluted 100 times in fresh LB medium with peptides R23R and R23L or gentamicin sulfate (positive control) at various concentrations. After 24 h at 37 °C co-incubation bacterial cells with peptides, the optical densities of the cultures were measured at a wavelength of 600 nm in a plate reader iMac (BioRad Laboratories, Hercules, CA, USA). Each test was carryout in three replicates.
# In the next experiment to prepare a stationary culture of P. aeruginosa, strain PA103, a colony was inoculated from a Petri dish in 1.5 mL of liquid LB medium and set to grow for 24 h at 37 °C and with stirring at 180 rpm. In the experiment, we used a culture with an initial concentration of ≈10^6–10^7 CFU/mL (10 μL), sterile LB medium (80 μL), peptides R23R* and R23L* diluted in 20% (volume/volume) DMSO or the antibiotic gentamicin sulfate as a positive control (10 μL). […] Optical density was measured in a plate reader iMac (BioRad Laboratories, Hercules, CA, USA) at a wavelength of 600 nm every hour from 0 h to 24 h. Each sample is measured in duplicate.
# [5] = system: P. aeruginosa strain PA103; assay: Inhibition zone assay on agar, strain PA103; type: cell-based, Pseudomonas aeruginosa; conditions: 24 h
# Experimental: as §2
# The culture of the studied bacteria (P. aeruginosa strain PA103) was diluted 10 times in Luria-Bertani (LB) medium with non-solidified 0.75% agar (w/w) on sterile Petri dishes. […]
# [6] = electron microscopy and fluorescence of thioflavin T; cited from earlier work
# Description: In accordance with the strategy presented in Figure 1, we developed hybrid peptides that contained a cell penetrating peptide (CPP) (fragment of Tat-peptide) at the N-termini and an amyloidogenic sequence at the C-termini, which was predicted using bioinformatics tools. The two sites were linked by four glycines. Thus, the construction of the fusion peptide was as follows: “CPP”+”linker GGGG”+ “predicted amyloidogenic-fragment”. The LHITDMAWKR and ITDFGIFIGL sequences were used as amyloidogenic fragments.
# [7] = system: P. aeruginosa strain ATCC 9027; assay: Antimicrobial test on agar, strain ATCC 9027; type: cell-based, Pseudomonas aeruginosa
# Experimental: as §2, §3
# Studies with the P. aeruginosa strain ATCC 9027 were carried out similarly to the P. aeruginosa strain ATCC 28753. The exception was the amount of LB medium. Sterile plastic Petri dishes were filled with LB medium (about 25 mL) with 0.75% agar and 250 µL of an overnight culture of the test bacteria was added to each dish.
molecule,measurement,setting,value
RKKRRQRRRGGGGITDFGIFIGL [R23L],cytotoxic effect / cell viability (in words),[1],remained alive; also recorded: did not have a toxic effect
same,cytotoxic effect / cell viability (in words),[2],remained alive; also recorded: did not have a toxic effect
same,MIC,[3],about 300 µM
RKKRRQRRRGGGGLHITDMAWKR [R23R],cytotoxic effect / cell viability (in words),[1],remained alive; also recorded: did not have a toxic effect
same,cytotoxic effect / cell viability (in words),[2],remained alive; also recorded: did not have a toxic effect
same,MIC,[3],about 300 µM
CNC(C)C1CCC(N)C(OC2C(N)CC(N)C(OC3OCC(C)(O)C(NC)C3O)C2O)O1 (centres unmarked) [gentamicin sulfate],Optical density,[4]; 174 µM,zero
same,Optical density,[4]; 1740 µM,zero
same,MIC,"[5]; Pseudomonas aeruginosa, PA103, drops on LB 0.75% agar, 20% DMSO, zones of inhibition, read-out: minimum inhibitory concentration (MIC)",170 µM
ITDFGIFIGL [amyloidogenic fragment from the fifth domain of ribosomal S1 protein of P. aeruginosa],amyloid-like properties (in words),[6],exhibited amyloid-like properties
"RKKRRQRRRGG-Sar [R12-Sar, CPP fragment with GG-Sar, without amyloidogenic part]",antimicrobial activity on agar (in words),"[7]; drops on LB 0.75% agar, 3.75-3750 µM tested, zones of inhibition",did not exhibit antimicrobial activity
same,antibacterial properties on agar,[7]; peptide 3.75 µM,Non-AMP
same,antibacterial properties on agar,[7]; peptide 37.5 µM,Non-AMP
same,antibacterial properties on agar,[7]; peptide 375 µM,Non-AMP
same,antibacterial properties on agar,[7]; peptide 3750 µM,Non-AMP
same,antimicrobial activity on agar (in words),"[5]; drops on LB agar, b51 states it for bacteria grown on agar in general",did not exhibit antimicrobial activity
same,antibacterial properties on agar,[5]; peptide 6.56 µM,Non-AMP
same,antibacterial properties on agar,[5]; peptide 65.6 µM,Non-AMP
same,antibacterial properties on agar,[5]; peptide 656 µM,Non-AMP
same,antibacterial properties on agar,[5]; peptide 6560 µM,Non-AMP
